Laboratory results reported in PMC8395767, “Worsening of the Toxic Effects of (±)Cis-4,4′-DMAR Following Its Co-Administration with (±)Trans-4,4′-DMAR: Neuro-Behavioural, Physiological, Immunohistochemical and Metabolic Studies in Mice” (International Journal of Molecular Sciences, 2021).
“And” between values parts separate entries of the source, which are not always exact repeats. Identical values can stand only once. Marks after values point to notes of the source that are not given here.

Experiments:
frontal cortex = experiment: Histology of brain (haematoxylin/eosin); type: in vivo, mice; conditions: 30 mg/kg, compared to controls
From the text: Following the acute death or the sacrifice of the animals (after 5-h observation period by dislocation of the spine), brains were taken. These were fixed in 4% buffered formalin and then sampled and incorporated into the paraffin (Leica ASP300 processor, Histoline TEC2900 incorporator; Leica Microsystems Srl, Buccinasco, Milano, Italy). Subsequently, the cut (performed with the Leica HistoCore autocut microtome; Leica Microsystems Srl, Buccinasco, Milano, Italy) was designed to create sections with a thickness of 5 µm for each sample.
For histological investigations, the sections were stained with haematoxylin/eosin and then observed under optical microscope (Nikon Eclipse E90i; Nikon, Roma, Italy).

mice [1] = experiment: Convulsions (observation); type: in vivo; conditions: n=6 mice
Protocol: (§1) The effects of (±)cis-4,4′-DMAR, (±)trans-4,4′-DMAR and their co-administration were investigated by a protocol widely used in studies of “safety pharmacology” for the preclinical characterization of new molecules in rodents. This protocol includes a series of observational behavioural tests carried out in a consecutive manner that monitor the animal responses up to 5 h after compound injections. In the present study, we reported the observation of physiological (sweating, salivation, core temperature) and neuro-behavioural (detection of psychomotor agitation, spontaneous and stimulated aggressiveness, convulsions) changes occurring in mice after injection of (±)cis-4,4′-DMAR, (±)trans-4,4′-DMAR and their co-administration. Before pharmacological treatment the mouse was placed on a square plate (30 cm× 30 cm) raised from the ground (20 cm) and left free to move on the plate for 10 min (habituation period). The animal was then injected with the vehicle, substances alone ((±)cis-4,4′-DMAR or (±)trans-4,4′-DMAR) or in cis + trans co-administration and placed on the plate. From this moment, the recording time of the physiological and neuro-behavioural responses started, and these were detected in 5-min sessions.
(§2) After the first 5 min, the animal was removed from the plate; the body core temperature was then measured, and the aggression tests were performed. The 5-min observation period was repeated at 15–30–60–90–120–180–240–300. Psychomotor agitation in the mouse was not simply related to an increase in spontaneous locomotion itself, but by an “unusual hyperactivity” which was characterised by rapid and sudden horizontal displacements in all directions, sustained turning behaviour, involuntary falls from the high plate during the evaluation of the tests, stereotyped movements and rearing activity. Mouse sweating and salivation were reported only if present or not. The core temperature was determined using a probe (1 mm diameter) that was gently inserted after lubrication with liquid Vaseline into the rectum of the mouse (to about 2 cm) and left in position until the temperature stabilised (about 10 s). The probe was connected to a digital thermometer. Spontaneous aggressive response was measured based on the number of times a mouse bit a grey cloth put in front of its snout. During the test, each mouse was free to move within the cage. In the case of stimulated aggressiveness, each mouse was manually restrained and held in a supine position following which an object was brought near the mouth. For both spontaneous and stimulated aggressive behaviour tests, a grey cloth was placed in front of the nose of each mouse 10 consecutive times (score 0/10 not aggressive, score 10/10 very aggressive). Convulsions were defined as a loss of righting reflexes for at least 5 s, combined with the presence of body tremors and clonic or tonic limb movements. Deaths caused by 4-4’-DMAR injection occurring during the observation period (5 h) were also reported as frequency (%) and time of death (min). Experiments were conducted inside the LARP (Centralised Preclinical Research Laboratory, University of Ferrara, Ferrara, Italy) in a thermo-stated (temperature 20–22 °C, humidity about 45–55%) and light controlled (about 150 lux) room, in which there was a background noise of about 40 ± 4 dB. The experiments, conducted in blind by trained observers working together in pairs, were videotaped and eventually analysed off-line by a different trained operator. The experiments were performed between 8:30 a.m. and 2:00 p.m.
(§3) Sweating and salivation were expressed as frequency (e.g., % of animals that developed symptoms); psychomotor agitation was expressed as frequency (% of animals) and duration (total time in mins). Core temperature values were expressed as the difference between control temperature (before injection) and temperature following drug administration (Δ°C). […]

mice [2] = experiment: Sweating and salivation (observation, present or not); type: in vivo; conditions: n=6 mice
Protocol: as §1, §2, §3

mice [3] = experiment: Lethality during the observation period; type: in vivo; conditions: n=6 mice
Protocol: as §1, §2, §3

DAT = test system: DAT; design: method as in PMID 25331619; conditions: rat brain tissue, lower potency than (±)cis-4,4′-DMAR; cited from earlier work
NET = test system: NET; design: method as in PMID 25331619; conditions: rat brain tissue, lower potency than (±)cis-4,4′-DMAR; cited from earlier work
[4] = 30 mg/kg i.p., listed as (±)cis-4,4′-DMAR
[5] = 60 mg/kg i.p., listed as (±)cis-4,4′-DMAR

With Cc1ccc(C2OC(N)=NC2C)cc1 (stereo not drawn) [cis-4,4’-DMAR, 4-methyl-5-(4-methylphenyl)-4,5-dihydrooxazol-2-amine] the “Histology of the frontal cortex (edema, vacuolization areas)” value (frontal cortex) was “mild edema”, the “Convulsion Duration of each episode” value (mice [1]; 30 mg/kg i.p.) was 4.86 ± 1.26 s and the “Convulsion Episodes (n°)” value (mice [1]; 30 mg/kg i.p.) was 3.5 ± 0.5 n°. The “Convulsion Frequency % (n° of mice)” value (mice [1]; 30 mg/kg i.p.) was 50% (3), the “Convulsion Latency of first episode” value (mice [1]; 30 mg/kg i.p.) was 10.5 ± 1.5 s and the “Convulsion Frequency % (n° of mice)” value (mice [1]; [4]) was 50%. The “Convulsion Duration of each episode” value (mice [1]; 60 mg/kg i.p.) was 16.14 ± 6.2 s, the “Convulsion Duration of each episode (sec)” value (mice [1]; 60 mg/kg i.p.) was 16.14 ± 3.2 ^d sec and the “Convulsion Episodes (n°)” value (mice [1]; 60 mg/kg i.p.) was 2.0 ± 0.41 ^d n° and 2.0 ± 0.41 n°. For the same molecule, the “Convulsion Frequency % (n° of mice)” value (mice [1]; 60 mg/kg i.p.) was 100% (6), the “Convulsion Latency of first episode” value (mice [1]; 60 mg/kg i.p.) was 8.25 ± 1.1 s and the “Convulsion Frequency % (n° of mice)” value (mice [1]; [5]) was 100%. The “Salivation Frequency % (n° of mice)” value (mice [2]; 30 mg/kg i.p.) was 100% (6), the “Sweating Frequency % (n° of mice)” value (mice [2]; 30 mg/kg i.p.) was 100% (6) and the “Salivation Frequency % (n° of mice)” value (mice [2]; [4]) was “All animals”. The “Sweating Frequency % (n° of mice)” value (mice [2]; [4]) was “All animals”, the “Salivation Frequency % (n° of mice)” value (mice [2]; 60 mg/kg i.p.) was 50% (3) and the “Sweating Frequency % (n° of mice)” value (mice [2]; 60 mg/kg i.p.) was 100% (6). The “Sweating Frequency % (n° of mice)” value (mice [2]; [5]) was 50%, the “Lethality Frequency % (n° of mice)” value (mice [3]; 30 mg/kg i.p.) was 50% (3) and the “Lethality Surviving mice % (n° of mice)” value (mice [3]; 30 mg/kg i.p.) was 50% (3). For the same molecule, the “Lethality Time of death” value (mice [3]; 30 mg/kg i.p.) was 59.3 ± 2.3 min, the “Lethality Frequency % (n° of mice)” value (mice [3]; 60 mg/kg i.p.) was 100% (6) and the “Lethality Surviving mice % (n° of mice)” value (mice [3]; 60 mg/kg i.p.) was 0% (0). For the same molecule, the “Lethality Time of death” value (mice [3]; 60 mg/kg i.p.) was 31.9 ± 5.6 min and the “Lethality Time of death (min)” value (mice [3]; 60 mg/kg i.p.) was 31.9 ± 5.6 ^d min.

In the case of Cc1ccc(C2OC(N)=NC2C)cc1 (stereo not drawn) [trans-4,4’-DMAR, 4-methyl-5-(4-methylphenyl)-4,5-dihydrooxazol-2-amine], the “Mode of action at DAT” value (DAT) is given as “substrate-type releaser” and the “Mode of action at NET” value (NET) is given as “substrate-type releaser”.
